Measured values as given in US10774047B2 (THE TRUSTEES OF THE UNIVERSITY OF PENNSYLVANIA, priority 2015, dated 2020).
Entries after “also recorded” stand apart in the source; their conditions may differ.

How the values were obtained:
[1] = tested on: G43 cells; test: G43 KPC pancreatic cancer syngeneic model; type: in vivo, C57BL/6 mice; settings: gemcitabine 120 mg/kg i.p. once; DQ661 4 mg/kg i.p. 2 days on 3 days off
Experimental: FIG. 6: DQ661 potentiates in vivo activity of gemcitabine in KPC pancreatic cancer syngeneic model. (A) 4664 and G43 cells were treated with gemcitabine (72 hr, 3-30 nM). MTT was subsequently added and cell viability was determined by standardizing absorbance to control wells. (B) G43 cells were treated chronically for 2 weeks with gemcitabine (3-30 nM) in the presence or absence of DQ661 (30-300 nM) in colony formation assays. Cells were subsequently stained with crystal violet and imaged. (C) A schematic for how mice were treated in (D). G43 cells were injected into C57BL/6 mice (2×10^6 cells/mouse. Once palpable, mice were treated with vehicle (water, PBS), gemcitabine (120 mg/kg, i.p., once at day 6), DQ661 (4 mg/kg, i.p., starting on day 7 according to the regimen of 2 days on treatment followed by 3 days off treatment) or a combination of gemcitabine and DQ661. (D) Average tumor volumes for each treatment arm are shown. Each point represents the mean of N=8 mice per treatment arm and the error bars represent s.e. (E) Tumor growth rate from (D).
Five to seven-week old NOD-scid gamma (NSG) mice (Jackson Laboratory) were used for xenograft studies with the 1205Lu melanoma cell line. […] Perpendicular tumor diameters were measured sing electronic calipers and volume was calculated leveraging the formula L×W^2×0.5, where L is the longest dimension and W is the perpendicular dimension. […]

[2] = tested on: mTORC1; test: Immunoblot of mTORC1 signaling and LC3B, panel of lysosomal inhibitors; settings: A375P cells
[3] = tested on: 451Lu (melanoma) cells; test: Bafilomycin clamp experiment (autophagic flux); type: cell-based; settings: 3 μM, with or without bafilomycin-A1, 24 hours
[4] = tested on: mTORC1; test: mTOR / LAMP2 co-localization imaging; settings: A375P cells, 6 hours, 3 μM
[5] = tested on: A375P cells; test: Galectin-3 punctae assay (lysosomal membrane permeabilization); type: cell-based; settings: 6 hours (LLOMe 3 hr, 2 mM)
Experimental: FIG. 3: Central nitrogen methylation status dictates DNA damage versus lysosomal membrane permeability. […] Cells were imaged with fluorescent microscopy, phospho-H2AX+ cells were scored using ImageJ software analysis and quantified to the right. (B) A375P cells were treated identical to the conditions in (A), with the addition of the positive control LLoMe (3 hr, 2 mM). Cells were subsequently stained with galectin-3 and imaged with fluorescent microscopy. The formation of galectin-3 punctae, which signify lysosomal membrane permeabilization, are pointed out with yellow arrows.
When lysosomes are healthy, galectin-3 is uniformly dispersed throughout the cell. However, when the lysosome is damaged, galectin-3 rapidly localizes to the site of damaged lysosomes, appearing as punctae and marking individual leaky lysosomes.

[6] = tested on: 1205Lu melanoma xenografts; test: 1205Lu melanoma xenograft model; type: in vivo, NSG mice
Experimental: (§1) FIG. 5: DQ661 has significant single-agent in vivo activity in melanoma xenograft model. […]. Mice were randomly split into 4 arms and treated with vehicle control (water, i.p.), quinacrine (8 mg/kg, i.p.), DQ660 (8 mg/kg, i.p.) or DQ661 (8 mg/kg, i.p.). Treatments were given as shown by the black arrows, following a regimen of 2 days on treatment followed by 2 days off treatment. (C) Representative electron micrographs from melanoma xenograft tumors harvested after 2 days of treatment according to (B). (D) Average tumor volumes for each treatment arm are shown. Each point represents the mean of N=8 mice per treatment arm and the error bars represent standard error (s.e.) (C) Representative EM for tumors treated in each arm. (E) A schematic for how mice were treated in (F). […]. Mice were randomly split into 3 arms and treated with water (i.p.), DQ661 (2 mg/kg, i.p.) or DQ661 (4 mg/kg, i.p.). Treatments were give as shown by the black arrows, following a regimen of 2 days on treatment followed by 2 days […]. Tumor volume is shown. Each point represents the mean of N=8 mice per treatment arm and the error bars represent s.e. (G) Average tumor growth rate for each treatment arm are shown. (H) Protein lysate was harvested from mouse tumors at the end of the experiment and immunoblotted for LC3B, phospho-4E-BP1 T37_T65, phospho-4E-BP1 S240_S244 and Actin. Quantification of proteins standardized to control mice levels are shown to the right.
(§2) Five to seven-week old NOD-scid gamma (NSG) mice (Jackson Laboratory) were used for xenograft studies with the 1205Lu melanoma cell line. Tumor generation, tumor measurement and tumor harvesting performed as previously described (ref). For the pancreatic cancer model, five to seven-week old C57BL/6 mice (Jackson Laboratory) and maintained under pathogen-free conditions. 2×10^6 G43 cells were subcutaneously injected with an equal volume of matrigel (BD) over the right flank […] and tumors became palpable after 5-6 days. Mice were enrolled on day 6 and given Gemcitabine (120 mg/kg, i.p.). DQ661 (4 mg/kg, i.p.) was given on days 7, 8, 12, 13, 17 and 18. Perpendicular tumor diameters were measured sing electronic calipers and volume was calculated leveraging the formula L×W^2×0.5, where L is the longest dimension and W is the perpendicular dimension. All animal experiments were performed in accordance to the protocols approved by the Institute of Animal Care and Use Committee of the University of Pennsylvania.
. After 1-2 weeks, tumors were palpable and mice were treated with vehicle control (water), quinacrine (8 mg/kg), DQ660 (8 mg/kg) or DQ661 (8 mg/kg) i.p (FIG. 5A). […]. Therefore another 1205Lu xenograft experiment was performed with mice treated with either vehicle control (water, n=6) or DQ661 (2 or 4 mg/kg, n=6) for a period of 14 days (FIG. 5e, 5F).

[7] = tested on: ATG5 WT and ATG5-null MEFs; test: Long-term colony formation in ATG5+/+ and ATG5-/- MEFs; type: cell-based; settings: 2 weeks, 10-300 nM
Experimental: (G) Long-term colony formation assays were performed with ATG5+/+ and ATG5−/− MEFs treated with DQ661 (2 weeks, 10-300 nM). Cells were subsequently stained with crystal violet and imaged.
The clonogenic assay was performed as previously described. Briefly, cells were suspended in appropriate culture media, and plated in 6-well plates (2×10^3 cells/well). Medium was changed and drug treatment refreshed every 3-4 days for 2 weeks. Cells were subsequently stained with crystal violet and quantified.

[8] = Tolerability in 1205Lu xenograft-bearing mice; type: in vivo
Experimental: as §1, §2
. After 1-2 weeks, tumors were palpable and mice were treated with vehicle control (water), quinacrine (8 mg/kg), DQ660 (8 mg/kg) or DQ661 (8 mg/kg) i.p (FIG. 5A). […]. […]

[9] = tested on: autophagy; settings: background; cited from earlier work
[10] = tested on: G43 cells; test: MTT viability of 4664 and G43 KPC pancreatic cancer cells; type: cell-based, mouse; settings: 72 hr
Experimental: FIG. 6: DQ661 potentiates in vivo activity of gemcitabine in KPC pancreatic cancer syngeneic model. (A) 4664 and G43 cells were treated with gemcitabine (72 hr, 3-30 nM). MTT was subsequently added and cell viability was determined by standardizing absorbance to control wells. (B) G43 cells were treated chronically for 2 weeks with gemcitabine (3-30 nM) in the presence or absence of DQ661 (30-300 nM) in colony formation assays. Cells were subsequently stained with crystal violet and imaged. (C) A schematic for how mice were treated in (D). […]
For MTT assays, cells were plated in 96-well plates (2,000 cells/well), allowed to adhere overnight, and subsequently treated in triplicate for 72 hours. MTT reagent (Roche) was applied, cells were solubilized and absorbance was read at 570 nm, with background subtraction at 690 nm. […] Cells were subsequently stained with crystal violet and quantified. […]

| SMILES | tumor growth [1] | autophagy inhibition (accumulation of LC3II/LC3I levels) among lysosomal inhibitors ([2]; 3 μM) | S6K (and 4E-BP1) phosphorylation ([2]; DQ661 3 μM, PET 10 μM, Bafilomycin A1 100 nM) | mTORC1 activity (Western blotting) ([2]; DQ661 3 μM, Pepstatin A 10 μG/mL, Siramesine 8 μM) | effect on autophagic flux (LC3II/LC3I ratio with vs without bafilomycin-A1) [3] | mTOR and lysosomal (LAMP2) co-localization [4] | galectin-3 staining pattern [5] | tumor growth ([6]; 8 mg/kg i.p., 2 days on / 2 days off) | autophagy in tumors (electron microscopy) ([6]; 8 mg/kg i.p., tumors harvested after 2 days of treatment) | tumor growth rate ([6]; 2 or 4 mg/kg i.p., 14 days) | tumor volume and tumor weight ([6]; 2 or 4 mg/kg i.p., 14 days) | Western blotting of tumor lysate (LC3, p62, phospho-4EBP1, phospho-S6) ([6]; 2 or 4 mg/kg i.p., end of experiment) | cytotoxicity in ATG5 WT vs ATG5-null MEFs [7] | clinical outcome by day 7 ([8]; 8 mg/kg i.p.) | histological analysis of the intestines and liver ([8]; 8 mg/kg i.p.) | weight loss of mice ([8]; 8 mg/kg i.p.) | mice weight ([8]; 2 or 4 mg/kg i.p., 14 days) | concentrations required to inhibit autophagy [9] | sensitivity of G43 cells relative to parental 4664 cells [10] |
| --- | --- | --- | --- | --- | --- | --- | --- | --- | --- | --- | --- | --- | --- | --- | --- | --- | --- | --- | --- |
| COc1ccc2nc3cc(Cl)ccc3c(NCCCCCCN(C)CCCCCCNc3c4ccc(Cl)cc4nc4ccc(OC)cc34)c2c1 [DQ 661] | significantly impaired | greatest ability to inhibit autophagy among the entire panel of lysosomal inhibitors | inhibit S6K and 4E-BP1 to a similar degree as the classical control of amino acid starvation | potently inhibits mTORC1 activity | autophagy inhibitors | loss of mTOR and lysosomal co-localization | punctate distribution of galectin-3 | inhibited tumor growth to the greatest extent | inhibited autophagy as seen by electron microscopy of mouse tumors | significantly slower rates of growth | significant reduction in tumor volume and tumor weight compared to control mice | concurrent in vivo autophagy inhibition and mTORC1 inhibition | equal cytotoxicity in ATG5 WT and ATG5-null MEFs; also recorded: equivalent activity | all mice were euthanized due to lethargy and bowel distension | Paneth cell dysfunction | greater than 10% | without significantly effect mice weight | – | – |
| CCN(CCO)CCCC(C)Nc1ccnc2cc(Cl)ccc12 (centres unmarked) [HCQ, hydroxychloroquine] | – | – | – | – | – | – | – | – | – | – | – | – | – | – | – | – | – | High micromolar concentrations | – |
| Nc1ccn([C@@H]2O[C@H](CO)[C@@H](O)C2(F)F)c(=O)n1 [gemcitabine, reference compound] | significantly impaired | – | – | – | – | – | – | – | – | – | – | – | – | – | – | – | – | – | resistant to gemcitabine, relative to the parental treatment naïve 4664 cells |
